Test results: US8013006B2
Where two headings read alike, the source gives them in different places.

Tested on: HCV replicon
Test: microbe, parasite or virus in culture
Assay type: cell-based
[1] = Replicon IC50 values are determined by firefly luciferase signal, bicistronic replicon, 2 days, read-out: Replicon IC5Os
[2] = Hepatitis C virus, 48 h, read-out: Replicon IC5Os μM
[3] = Hepatitis C virus, 48 h, read-out: Replicon IC5Os

CCn1c(C#Cc2ccc(Cl)cc2)c(C#N)c2ccc(O)cc21 [Compound 187]
IC50 [1]: 0.5 to 2 µM

CCn1c(-c2ccc(NS(=O)(=O)CC)cc2)c(C#N)c2ccc(O)cc21 [Compound 190]
IC50 [1]: 0.5 to 2 µM

CCn1c(-c2ccc(N(C)S(C)(=O)=O)cc2)c(C#N)c2ccc(O)cc21 [Compound 191]
IC50 [1]: > 2 µM

CCn1c(C#Cc2ccc(NC(=O)C3CCCC3)cc2)c(C#N)c2ccc(O)cc21 [Compound 195]
IC50 [1]: 0.5 to 2 µM

CCn1c(C#Cc2ccc(OC)cc2)c(C#N)c2ccc(C(F)(F)F)cc21 [Compound 199]
IC50 [1]: > 2 µM

CCn1c(C#Cc2cccc(OC)c2)c(C#N)c2ccc(C(F)(F)F)cc21 [Compound 202]
IC50 [1]: 0.5 to 2 µM

CCn1c(NC(C)=O)c(C#N)c2ccc(OC)cc21 [Compound 203]
IC50 [1]: 0.5 to 2 µM

CCn1c(NC(=O)c2ccccc2)c(C#N)c2ccc(OC)cc21 [Compound 204]
IC50 [2]: < 0.5 µM

CCn1c(C#Cc2cccc(NS(C)(=O)=O)c2)c(C#N)c2ccc(OC)cc21 [Compound 208]
IC50 [1]: 0.5 to 2 µM

CCn1c(C#Cc2cccc(NS(=O)(=O)C(C)C)c2)c(C#N)c2ccc(OC)cc21 [Compound 210]
IC50 [1]: 0.5 to 2 µM

CCn1c(C#Cc2cccc(NC(=O)C(C)(C)C)c2)c(C#N)c2ccc(OC)cc21 [Compound 212]
IC50 [1]: 0.5 to 2 µM

CCn1c(NC(=O)c2cccc(F)c2)c(C#N)c2ccc(OC)cc21 [Compound 214]
IC50 [1]: < 0.5 µM

CCn1c(NC(=O)c2ccc(C#N)cc2)c(C#N)c2ccc(OC)cc21 [Compound 215]
IC50 [1]: 0.5 to 2 µM

CCn1c(C#Cc2cccc(N3CCNC3=O)c2)c(C#N)c2ccc(OC)cc21 [Compound 222]
IC50 [1]: 0.5 to 2 µM

CCn1c(C#Cc2ccc(N)cc2)c(C#N)c2cc(OC)ccc21 [Compound 223]
IC50 [1]: 0.5 to 2 µM

CCn1c(C#Cc2ccc(NC(C)=O)cc2)c(C#N)c2cc(OC)ccc21 [Compound 224]
IC50 [1]: 0.5 to 2 µM

CCC(=O)Nc1ccc(C#Cc2c(C#N)c3cc(OC)ccc3n2CC)cc1 [Compound 225]
IC50 [1]: 0.5 to 2 µM

CCn1c(C#Cc2ccc(NC(=O)COC)cc2)c(C#N)c2cc(OC)ccc21 [Compound 228]
IC50 [1]: > 2 µM

CCOc1ccc(-c2c(C#N)c3cc(OC)ccc3n2CC)cc1 [Compound 229]
IC50 [1]: > 2 µM

COc1ccc2c(C#N)c(C#Cc3cccc4ccccc34)[nH]c2c1 [Compound 230]
IC50 [1]: > 2 µM

COc1ccc2c(C#N)c(C#Cc3cccc(O)c3)[nH]c2c1 [Compound 231]
IC50 [1]: > 2 µM

COc1ccc2c(C#N)c(C#Cc3cccc(Cl)c3)[nH]c2c1 [Compound 232]
IC50 [1]: > 2 µM

COc1ccc2c(C#N)c(C#Cc3ccc(N)cc3)[nH]c2c1 [Compound 234]
IC50 [1]: > 2 µM

COc1ccc2c(C#N)c(C#Cc3ccc(N(C)C)cc3)[nH]c2c1 [Compound 235]
IC50 [1]: 0.5 to 2 µM

COc1ccc2c(C#N)c(C#Cc3ccc(C)cc3)[nH]c2c1 [Compound 236]
IC50 [1]: > 2 µM

COc1cccc(C#Cc2[nH]c3cc(OC)ccc3c2C#N)c1 [Compound 237]
IC50 [1]: > 2 µM

COc1ccc2c(C#N)c(C#Cc3ccccc3)[nH]c2c1 [Compound 238]
IC50 [1]: > 2 µM

CCn1c(-c2ccc(N)cc2)c(C#N)c2cc(OC)ccc21 [Compound 239]
IC50 [1]: > 2 µM

CCn1c(-c2ccc(C(=O)OC)cc2)c(C#N)c2cc(OC)ccc21 [Compound 240]
IC50 [1]: > 2 µM

CCn1c(-c2ccc(NC(C)=O)cc2)c(C#N)c2cc(OC)ccc21 [Compound 242]
IC50 [1]: > 2 µM

CCn1c(-c2ccc(C(=O)N3CCCC3)cc2)c(C#N)c2cc(OC)ccc21 [Compound 246]
IC50 [1]: > 2 µM

CCn1c(-c2ccc(O)cc2)c(C#N)c2ccc(OC)cc21 [Compound 247]
IC50 [1]: > 2 µM

CCn1c(-c2ccc(OCCO)cc2)c(C#N)c2ccc(OC)cc21 [Compound 249]
IC50 [1]: 0.5 to 2 µM

CCn1c(-c2ccc(SC)cc2)c(C#N)c2ccc(OC)cc21 [Compound 250]
IC50 [1]: > 2 µM

COc1ccc2c(C#N)c(-c3ccc4c(c3)OCO4)n(C)c2c1 [Compound 254]
IC50 [1]: > 2 µM

CCn1c(-c2ccc(O)cc2)c(C#N)c2ccc(C(F)(F)F)cc21 [Compound 256]
IC50 [1]: > 2 µM

CCn1c(-c2ccc(N)cc2)c(C#N)c2ccc(C(F)(F)F)cc21 [Compound 257]
IC50 [1]: > 2 µM

CCn1c(-c2cccc(N)c2)c(C#N)c2ccc(C(F)(F)F)cc21 [Compound 258]
IC50 [1]: > 2 µM

CCn1c(-c2ccc(N(C)C)cc2)c(C#N)c2ccc(C(F)(F)F)cc21 [Compound 259]
IC50 [1]: > 2 µM

CCn1c(-c2ccc3c(c2)OCO3)c(C#N)c2ccc(C(F)(F)F)cc21 [Compound 260]
IC50 [1]: > 2 µM

CCn1c(-c2ccc(OCCN3CCN(C)CC3)cc2)c(C#N)c2ccc(OC)cc21 [Compound 263]
IC50 [1]: 0.5 to 2 µM

CCn1c(-c2ccc(OCCN3CC[C@H](O)C3)cc2)c(C#N)c2ccc(OC)cc21 [Compound 264]
IC50 [2]: 0.5 to 2 µM

CCOc1ccc2c(C#N)c(-c3ccc(C(=O)N4CCOCC4)cc3)n(CC)c2c1 [Compound 270]
IC50 [1]: > 2 µM

CCn1c(-c2ccc(C(=O)N3CCOCC3)cc2)c(C#N)c2ccc(OC(C)C)cc21 [Compound 271]
IC50 [1]: 0.5 to 2 µM

CCn1c(-c2ccc(NS(=O)(=O)C3CC3)cc2)c(C#N)c2ccc(OC)cc21 [Compound 272]
IC50 [1]: 0.5 to 2 µM

CCn1c(-c2ccc(NS(=O)(=O)CCl)cc2)c(C#N)c2ccc(OC)cc21 [Compound 273]
IC50 [1]: > 2 µM

CCn1c(-c2ccc(S(=O)(=O)N(C)C)cc2)c(C#N)c2ccc(OC)cc21 [Compound 275]
IC50 [1]: > 2 µM

CCn1c(-c2ccc(S(=O)(=O)N3CCOCC3)cc2)c(C#N)c2ccc(OC)cc21 [Compound 276]
IC50 [1]: > 2 µM

CCn1c(-c2ccc(S(=O)(=O)NC)cc2)c(C#N)c2ccc(OC)cc21 [Compound 277]
IC50 [1]: > 2 µM

CCn1c(-c2ccc(S(N)(=O)=O)cc2)c(C#N)c2ccc(OC)cc21 [Compound 278]
IC50 [1]: > 2 µM

CCn1c(-c2cc3ccccc3o2)c(C#N)c2ccc(OC)cc21 [Compound 282]
IC50 [1]: > 2 µM

CCn1c(-c2ccc(-c3ccccc3)cc2)c(C#N)c2ccc(OC)cc21 [Compound 283]
IC50 [1]: > 2 µM

CCn1c(-c2cc3ccccc3s2)c(C#N)c2ccc(OC)cc21 [Compound 286]
IC50 [1]: 0.5 to 2 µM

CCn1c(-c2cccc(NS(=O)(=O)CC)c2)c(C#N)c2ccc(OC)cc21 [Compound 287]
IC50 [1]: > 2 µM

CCn1c(-c2cccc(NS(=O)(=O)CCCCl)c2)c(C#N)c2ccc(OC)cc21 [Compound 289]
IC50 [1]: > 2 µM

CCn1c(-c2cccc(C(=O)NCCN3CCOCC3)c2)c(C#N)c2ccc(OC)cc21 [Compound 290]
IC50 [1]: > 2 µM

CCn1c(-c2cccc(C(N)=O)c2)c(C#N)c2ccc(OC)cc21 [Compound 291]
IC50 [1]: > 2 µM

CCNC(=O)c1cccc(-c2c(C#N)c3ccc(OC)cc3n2CC)c1 [Compound 292]
IC50 [1]: > 2 µM

CCn1c(-c2cccc(NC(=O)Oc3ccccc3)c2)c(C#N)c2ccc(OC)cc21 [Compound 293]
IC50 [1]: > 2 µM

CCOC(=O)Nc1cccc(-c2c(C#N)c3ccc(OC)cc3n2CC)c1 [Compound 294]
IC50 [3]: < 0.5 µM

CCn1c(-c2cccc(NC(=O)OCC(C)C)c2)c(C#N)c2ccc(OC)cc21 [Compound 296]
IC50 [3]: 0.5 to 2 µM

CCCOC(=O)Nc1cccc(-c2c(C#N)c3ccc(OC)cc3n2CC)c1 [Compound 297]
IC50 [3]: 0.5 to 2 µM

CCn1c(-c2cccc(NC(=O)OCCOC)c2)c(C#N)c2ccc(OC)cc21 [Compound 298]
IC50 [3]: 0.5 to 2 µM

C=CCOC(=O)Nc1cccc(-c2c(C#N)c3ccc(OC)cc3n2CC)c1 [Compound 299]
IC50 [3]: 0.5 to 2 µM
